Tests used:
Type in all cases: cell-based
Settings in all cases: compounds at 50 nM and 500 nM
IKZF3 = molecular target: T1, IKZF3 (Homo sapiens, UniProt Q96SW2+Q9UKT9); assay: Western blot degradation of IKZF3 in hPBMCs (24 h)
T1 construct: The supernatant was aspirated as the extracted total cell protein; endogenous in cells; host or cells: human peripheral blood mononuclear cells (hPBMCs)
Procedure, shortened: (§1)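 hPBMCs (1×10^6 cells/mL) were treated with compound at 50 nM and 500 nM for 24 h, lysed in RIPA with protease inhibitors and analysed by SDS-PAGE/Western blot. Band grayscale, normalised to internal control, gave protein remaining (%); DC50 estimated versus DMSO bands.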

IKZF1 = molecular target: T2, IKZF1 (Homo sapiens, UniProt Q13422+Q96SW2); assay: Western blot degradation of IKZF1 in hPBMCs (24 h)
T2 construct: The supernatant was aspirated as the extracted total cell protein; endogenous in cells; host or cells: human peripheral blood mononuclear cells (hPBMCs)
T2 sequence (Q13422 whole entry): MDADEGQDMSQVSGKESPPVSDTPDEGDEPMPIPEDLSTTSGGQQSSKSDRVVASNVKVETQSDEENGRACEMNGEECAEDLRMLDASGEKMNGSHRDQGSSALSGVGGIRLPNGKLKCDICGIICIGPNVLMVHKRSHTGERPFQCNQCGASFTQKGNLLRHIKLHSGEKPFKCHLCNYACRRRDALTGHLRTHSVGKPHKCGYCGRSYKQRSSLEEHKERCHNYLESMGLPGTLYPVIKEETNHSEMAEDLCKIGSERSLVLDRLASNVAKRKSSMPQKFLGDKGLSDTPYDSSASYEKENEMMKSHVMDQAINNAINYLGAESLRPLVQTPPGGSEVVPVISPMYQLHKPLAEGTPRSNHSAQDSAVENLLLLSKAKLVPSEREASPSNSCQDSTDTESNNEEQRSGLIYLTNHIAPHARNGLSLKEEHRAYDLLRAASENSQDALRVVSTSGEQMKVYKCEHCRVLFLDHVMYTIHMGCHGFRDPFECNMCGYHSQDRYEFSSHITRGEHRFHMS
T2 sequence (Q96SW2 whole entry): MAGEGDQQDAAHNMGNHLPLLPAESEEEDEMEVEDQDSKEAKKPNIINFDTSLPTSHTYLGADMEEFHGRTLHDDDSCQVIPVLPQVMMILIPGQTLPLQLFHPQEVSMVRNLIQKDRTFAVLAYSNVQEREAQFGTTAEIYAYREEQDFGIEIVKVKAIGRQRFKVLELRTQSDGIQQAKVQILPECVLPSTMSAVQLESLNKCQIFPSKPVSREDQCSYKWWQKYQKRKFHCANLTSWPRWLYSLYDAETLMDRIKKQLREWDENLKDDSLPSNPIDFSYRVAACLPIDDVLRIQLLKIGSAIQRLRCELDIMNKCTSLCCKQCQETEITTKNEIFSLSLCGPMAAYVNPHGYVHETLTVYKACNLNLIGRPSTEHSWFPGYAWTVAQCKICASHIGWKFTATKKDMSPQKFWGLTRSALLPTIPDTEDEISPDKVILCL
T2 sequence (Q16531 whole entry partner): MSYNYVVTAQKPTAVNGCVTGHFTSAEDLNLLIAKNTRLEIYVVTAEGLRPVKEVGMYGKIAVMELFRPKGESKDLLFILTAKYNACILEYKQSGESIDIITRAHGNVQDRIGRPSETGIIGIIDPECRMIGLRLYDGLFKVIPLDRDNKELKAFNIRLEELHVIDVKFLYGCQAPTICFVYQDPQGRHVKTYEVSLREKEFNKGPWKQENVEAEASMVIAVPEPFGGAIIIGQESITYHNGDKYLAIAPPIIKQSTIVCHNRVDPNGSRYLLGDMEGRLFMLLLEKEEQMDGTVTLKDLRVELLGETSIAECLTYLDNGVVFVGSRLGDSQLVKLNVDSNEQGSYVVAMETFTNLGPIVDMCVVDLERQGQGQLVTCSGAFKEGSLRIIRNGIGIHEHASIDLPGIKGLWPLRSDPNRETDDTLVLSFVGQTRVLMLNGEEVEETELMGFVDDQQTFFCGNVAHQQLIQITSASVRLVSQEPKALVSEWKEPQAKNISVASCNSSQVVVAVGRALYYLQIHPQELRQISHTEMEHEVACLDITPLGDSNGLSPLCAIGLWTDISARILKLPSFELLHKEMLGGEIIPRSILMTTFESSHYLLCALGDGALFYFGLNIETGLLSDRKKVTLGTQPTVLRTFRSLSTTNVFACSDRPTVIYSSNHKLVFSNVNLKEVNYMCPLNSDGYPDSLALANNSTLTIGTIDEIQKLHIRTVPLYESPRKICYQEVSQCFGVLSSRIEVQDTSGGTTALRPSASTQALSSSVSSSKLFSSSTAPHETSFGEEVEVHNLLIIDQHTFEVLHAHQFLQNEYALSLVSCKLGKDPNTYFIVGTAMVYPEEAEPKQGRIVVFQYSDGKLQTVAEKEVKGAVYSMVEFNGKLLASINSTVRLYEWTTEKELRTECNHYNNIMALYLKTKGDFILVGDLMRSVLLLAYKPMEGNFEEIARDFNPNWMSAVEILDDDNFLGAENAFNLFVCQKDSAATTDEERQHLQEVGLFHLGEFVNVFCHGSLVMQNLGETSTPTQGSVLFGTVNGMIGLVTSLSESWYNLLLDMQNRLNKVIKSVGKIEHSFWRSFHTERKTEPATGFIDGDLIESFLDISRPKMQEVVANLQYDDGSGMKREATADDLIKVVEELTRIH
Procedure, shortened: as §1

CK1α = molecular target: T3, CK1α (Homo sapiens, UniProt P48729+Q96SW2); assay: Western blot degradation of CK1α in hPBMCs (24 h)
T3 construct: The supernatant was aspirated as the extracted total cell protein; endogenous in cells; host or cells: human peripheral blood mononuclear cells (hPBMCs)
T3 sequence (P48729 whole entry): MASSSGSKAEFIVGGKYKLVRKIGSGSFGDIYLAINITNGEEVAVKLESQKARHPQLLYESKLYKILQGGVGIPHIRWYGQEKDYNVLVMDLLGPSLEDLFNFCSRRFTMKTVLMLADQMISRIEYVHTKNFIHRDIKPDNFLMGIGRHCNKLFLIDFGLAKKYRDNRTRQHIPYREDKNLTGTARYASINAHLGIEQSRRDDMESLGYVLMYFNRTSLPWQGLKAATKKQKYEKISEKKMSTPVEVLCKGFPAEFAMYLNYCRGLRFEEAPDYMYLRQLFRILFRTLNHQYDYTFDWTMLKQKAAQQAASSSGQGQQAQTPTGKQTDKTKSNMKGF
T3 sequence (Q96SW2 whole entry): as the sequence (Q96SW2 whole entry) above
T3 sequence (Q16531 whole entry partner): as the sequence (Q16531 whole entry partner) above
Procedure, shortened: as §1

WEE1 = molecular target: T4, WEE1 (Homo sapiens, UniProt P30291+Q96SW2); assay: Western blot degradation of WEE1 in hPBMCs (24 h)
T4 construct: The supernatant was aspirated as the extracted total cell protein; endogenous in cells; host or cells: human peripheral blood mononuclear cells (hPBMCs)
Procedure, shortened: as §1

IKZF2 = molecular target: T5, IKZF2 (Homo sapiens, UniProt Q96SW2+Q9UKS7); assay: Western blot degradation of IKZF2 in hPBMCs (24 h)
T5 construct: The supernatant was aspirated as the extracted total cell protein; endogenous in cells; host or cells: human peripheral blood mononuclear cells (hPBMCs)
T5 sequence (Q9UKS7 whole entry): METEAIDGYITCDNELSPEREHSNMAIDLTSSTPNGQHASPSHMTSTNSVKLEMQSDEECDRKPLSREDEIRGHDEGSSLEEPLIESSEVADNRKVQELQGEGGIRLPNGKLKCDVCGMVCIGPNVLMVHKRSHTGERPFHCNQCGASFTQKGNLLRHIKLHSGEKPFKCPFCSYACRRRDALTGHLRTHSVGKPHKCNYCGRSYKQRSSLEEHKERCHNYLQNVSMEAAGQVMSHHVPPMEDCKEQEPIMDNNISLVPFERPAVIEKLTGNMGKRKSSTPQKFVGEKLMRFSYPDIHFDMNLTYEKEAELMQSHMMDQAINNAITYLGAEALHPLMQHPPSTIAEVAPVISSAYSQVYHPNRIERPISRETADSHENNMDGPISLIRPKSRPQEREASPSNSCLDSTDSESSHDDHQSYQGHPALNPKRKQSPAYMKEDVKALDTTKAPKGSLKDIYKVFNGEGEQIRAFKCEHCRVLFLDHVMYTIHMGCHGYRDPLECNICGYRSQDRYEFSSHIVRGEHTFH
T5 sequence (Q96SW2 whole entry): as the sequence (Q96SW2 whole entry) above
T5 sequence (Q16531 whole entry partner): as the sequence (Q16531 whole entry partner) above
Procedure, shortened: as §1

GSPT1 = molecular target: T6, GSPT1 (Homo sapiens, UniProt P15170+Q96SW2); assay: Western blot degradation of GSPT1 in hPBMCs (24 h)
T6 construct: The supernatant was aspirated as the extracted total cell protein; endogenous in cells; host or cells: human peripheral blood mononuclear cells (hPBMCs)
T6 sequence (P15170 whole entry): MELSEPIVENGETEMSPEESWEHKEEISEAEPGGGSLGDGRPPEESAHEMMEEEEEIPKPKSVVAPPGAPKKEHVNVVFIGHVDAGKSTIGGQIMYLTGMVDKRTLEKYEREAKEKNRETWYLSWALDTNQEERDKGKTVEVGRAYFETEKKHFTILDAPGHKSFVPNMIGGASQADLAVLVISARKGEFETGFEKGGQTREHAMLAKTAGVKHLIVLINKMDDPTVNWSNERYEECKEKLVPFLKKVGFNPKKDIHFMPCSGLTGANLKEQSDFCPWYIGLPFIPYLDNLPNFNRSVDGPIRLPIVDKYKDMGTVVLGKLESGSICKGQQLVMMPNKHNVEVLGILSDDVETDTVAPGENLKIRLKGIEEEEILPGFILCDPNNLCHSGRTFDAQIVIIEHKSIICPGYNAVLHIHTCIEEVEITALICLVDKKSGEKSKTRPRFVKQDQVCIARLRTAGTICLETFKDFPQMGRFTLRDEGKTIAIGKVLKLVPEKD
T6 sequence (Q96SW2 whole entry): as the sequence (Q96SW2 whole entry) above
T6 sequence (Q16531 whole entry partner): as the sequence (Q16531 whole entry partner) above
Procedure, shortened: as §1

T1 sequence (Q9UKT9 whole entry): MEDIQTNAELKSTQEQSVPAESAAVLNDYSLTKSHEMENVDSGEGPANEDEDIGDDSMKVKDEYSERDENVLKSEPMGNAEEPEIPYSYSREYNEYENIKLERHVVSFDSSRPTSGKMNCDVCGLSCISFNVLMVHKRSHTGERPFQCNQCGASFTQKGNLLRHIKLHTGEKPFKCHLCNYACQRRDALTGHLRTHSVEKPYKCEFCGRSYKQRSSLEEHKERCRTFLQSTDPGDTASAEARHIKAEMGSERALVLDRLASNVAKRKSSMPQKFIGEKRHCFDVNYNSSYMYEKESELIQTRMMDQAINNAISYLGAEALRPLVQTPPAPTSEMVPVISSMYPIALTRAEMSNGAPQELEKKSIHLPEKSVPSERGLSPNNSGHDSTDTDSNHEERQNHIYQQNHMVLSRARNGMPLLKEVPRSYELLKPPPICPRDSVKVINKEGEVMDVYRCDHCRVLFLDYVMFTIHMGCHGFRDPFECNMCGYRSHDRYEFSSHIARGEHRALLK
T1 sequence (Q96SW2 whole entry): as the sequence (Q96SW2 whole entry) above
T1 sequence (Q16531 whole entry partner): as the sequence (Q16531 whole entry partner) above

Row | SMILES | IKZF3 substrate protein remaining % (IKZF3) | IKZF1 substrate protein remaining % (IKZF1) | CK1α substrate protein remaining % (CK1α) | WEE1 substrate protein remaining % (WEE1) | IKZF2 substrate protein remaining % (IKZF2) | GSPT1 substrate protein remaining % (GSPT1)
1 | Cc1ccc(C2=CCN(Cc3ccc4c(c3)C(=O)N(N3CCC(=O)NC3=O)C4=O)CC2)s1 [GT-05310, 2-(2,4-dioxotetrahydropyrimidin-1(2H)-yl)-5-((4-(5-methylthiophen-2-yl)-3,6-dihydropyridin-1(2H)-yl)methyl)isoindoline-1,3-dione] | B (80%< substrate protein remaining % ≤100%) | B (80%< substrate protein remaining % ≤100%) | B (80%< substrate protein remaining % ≤100%) | B (80%< substrate protein remaining % ≤100%) | B (80%< substrate protein remaining % ≤100%) | A (0% ≤ substrate protein remaining % ≤80%)
2 | O=C1CCN(N2C(=O)c3ccc(CN4CCN(c5ccsc5)CC4)cc3C2=O)C(=O)N1 [GT-05313, 2-(2,4-dioxotetrahydropyrimidin-1(2H)-yl)-5-((4-(thiophen-3-yl)piperazin-1-yl)methyl)isoindoline-1,3-dione] | B (80%< substrate protein remaining % ≤100%) | B (80%< substrate protein remaining % ≤100%) | B (80%< substrate protein remaining % ≤100%) | B (80%< substrate protein remaining % ≤100%) | B (80%< substrate protein remaining % ≤100%) | A (0% ≤ substrate protein remaining % ≤80%)
3 | Cc1cscc1C1CCN(Cc2ccc3c(c2)C(=O)N(N2CCC(=O)NC2=O)C3=O)CC1 [GT-05314, 2-(2,4-dioxotetrahydropyrimidin-1(2H)-yl)-5-((4-(4-methylthiophen-3-yl)piperidin-1-yl)methyl)isoindoline-1,3-dione] | B (80%< substrate protein remaining % ≤100%) | B (80%< substrate protein remaining % ≤100%) | B (80%< substrate protein remaining % ≤100%) | B (80%< substrate protein remaining % ≤100%) | B (80%< substrate protein remaining % ≤100%) | A (0% ≤ substrate protein remaining % ≤80%)
4 | O=C1CCN(N2C(=O)c3ccc(CN4CCC(c5ccco5)CC4)cc3C2=O)C(=O)N1 [GT-05315, 2-(2,4-dioxotetrahydropyrimidin-1(2H)-yl)-5-((4-(furan-2-yl)piperidin-1-yl)methyl)isoindoline-1,3-dione] | B (80%< substrate protein remaining % ≤100%) | B (80%< substrate protein remaining % ≤100%) | B (80%< substrate protein remaining % ≤100%) | B (80%< substrate protein remaining % ≤100%) | B (80%< substrate protein remaining % ≤100%) | A (0% ≤ substrate protein remaining % ≤80%)
5 | Cc1cscc1C1=CCN(Cc2ccc3c(c2)C(=O)N(N2CCC(=O)NC2=O)C3=O)CC1 [GT-05316, 2-(2,4-dioxotetrahydropyrimidin-1(2H)-yl)-5-((4-(4-methylthiophen-3-yl)-3,6-dihydropyridin-1(2H)-yl)methyl)isoindoline-1,3-dione] | B (80%< substrate protein remaining % ≤100%) | B (80%< substrate protein remaining % ≤100%) | B (80%< substrate protein remaining % ≤100%) | B (80%< substrate protein remaining % ≤100%) | B (80%< substrate protein remaining % ≤100%) | A (0% ≤ substrate protein remaining % ≤80%)
6 | O=C1CCN(N2C(=O)c3ccc(CN4CC=C(c5ccco5)CC4)cc3C2=O)C(=O)N1 [GT-05317, 2-(2,4-dioxotetrahydropyrimidin-1(2H)-yl)-5-((4-(furan-2-yl)-3,6-dihydropyridin-1(2H)-yl)methyl)isoindoline-1,3-dione] | B (80%< substrate protein remaining % ≤100%) | B (80%< substrate protein remaining % ≤100%) | B (80%< substrate protein remaining % ≤100%) | B (80%< substrate protein remaining % ≤100%) | B (80%< substrate protein remaining % ≤100%) | A (0% ≤ substrate protein remaining % ≤80%)
7 | O=C1CCN(N2C(=O)c3ccc(CN4CCN(c5ccc(Cl)cn5)CC4)cc3C2=O)C(=O)N1 [GT-05350, 5-((4-(5-chloropyridin-2-yl)piperazin-1-yl)methyl)-2-(2,4-dioxotetrahydropyrimidin-1(2H)-yl)isoindoline-1,3-dione] | B (80%< substrate protein remaining % ≤100%) | B (80%< substrate protein remaining % ≤100%) | B (80%< substrate protein remaining % ≤100%) | B (80%< substrate protein remaining % ≤100%) | B (80%< substrate protein remaining % ≤100%) | A (0% ≤ substrate protein remaining % ≤80%)
8 | Cc1cccc(N2CCN(Cc3ccc4c(c3)C(=O)N(N3CCC(=O)NC3=O)C4=O)CC2)n1 [GT-05352, 2-(2,4-dioxotetrahydropyrimidin-1(2H)-yl)-5-((4-(6-methylpyridin-2-yl)piperazin-1-yl)methyl)isoindoline-1,3-dione] | B (80%< substrate protein remaining % ≤100%) | B (80%< substrate protein remaining % ≤100%) | B (80%< substrate protein remaining % ≤100%) | B (80%< substrate protein remaining % ≤100%) | A (0% ≤ substrate protein remaining % ≤80%) | A (0% ≤ substrate protein remaining % ≤80%)
9 | O=C1CCN(N2Cc3cc(CN4CCN(c5nccc(Cl)c5F)CC4)ccc3C2=O)C(=O)N1 [GT-05358, 1-(5-((4-(4-chloro-3-fluoropyridin-2-yl)piperazin-1-yl)methyl)-1-oxoisoindolin-2-yl)dihydropyrimidine-2,4(1H,3H)-dione] | B (80%< substrate protein remaining % ≤100%) | B (80%< substrate protein remaining % ≤100%) | B (80%< substrate protein remaining % ≤100%) | B (80%< substrate protein remaining % ≤100%) | B (80%< substrate protein remaining % ≤100%) | A (0% ≤ substrate protein remaining % ≤80%)
10 | O=C1CCN(N2Cc3cc(CN4CCN(c5ccc(Cl)nc5)CC4)ccc3C2=O)C(=O)N1 [GT-05435, 1-(5-((4-(6-chloropyridin-3-yl)piperazin-1-yl)methyl)-1-oxoisoindolin-2-yl)dihydropyrimidine-2,4(1H,3H)-dione] | B (80%< substrate protein remaining % ≤100%) | B (80%< substrate protein remaining % ≤100%) | B (80%< substrate protein remaining % ≤100%) | A (0% ≤ substrate protein remaining % ≤80%) | B (80%< substrate protein remaining % ≤100%) | A (0% ≤ substrate protein remaining % ≤80%)
11 | O=C1CCN(N2Cc3cc(CN4CCN(c5cncc(Cl)c5Cl)CC4)ccc3C2=O)C(=O)N1 [GT-05436, 1-(5-((4-(4,5-dichloropyridin-3-yl)piperazin-1-yl)methyl)-1-oxoisoindolin-2-yl)dihydropyrimidine-2,4(1H,3H)-dione] | B (80%< substrate protein remaining % ≤100%) | B (80%< substrate protein remaining % ≤100%) | B (80%< substrate protein remaining % ≤100%) | A (0% ≤ substrate protein remaining % ≤80%) | B (80%< substrate protein remaining % ≤100%) | A (0% ≤ substrate protein remaining % ≤80%)
12 | O=C1CCN(N2Cc3cc(CN4CCN(c5ccncc5)CC4)ccc3C2=O)C(=O)N1 [GT-05437, 1-(1-oxo-5-((4-(pyridin-4-yl)piperazin-1-yl)methyl)isoindolin-2-yl)dihydropyrimidine-2,4(1H,3H)-dione] | B (80%< substrate protein remaining % ≤100%) | B (80%< substrate protein remaining % ≤100%) | B (80%< substrate protein remaining % ≤100%) | B (80%< substrate protein remaining % ≤100%) | B (80%< substrate protein remaining % ≤100%) | A (0% ≤ substrate protein remaining % ≤80%)
13 | Cc1cc(N2CCN(Cc3ccc4c(c3)CN(N3CCC(=O)NC3=O)C4=O)CC2)ccn1 [GT-05438, 1-(5-((4-(2-methylpyridin-4-yl)piperazin-1-yl)methyl)-1-oxoisoindolin-2-yl)dihydropyrimidine-2,4(1H,3H)-dione] | A (0% ≤ substrate protein remaining % ≤80%) | A (0% ≤ substrate protein remaining % ≤80%) | A (0% ≤ substrate protein remaining % ≤80%) | A (0% ≤ substrate protein remaining % ≤80%) | B (80%< substrate protein remaining % ≤100%) | A (0% ≤ substrate protein remaining % ≤80%)

Reference: patent US20260356819A1, “OXOISOINDOLINYL-SUBSTITUTED […] DERIVATIVE AND USE THEREOF” (GLUETACS THERAPEUTICS (SHANGHAI) CO., LTD., priority 2023, published 2026)
